Test results taken from patent publication US12187773B2, “Modified GIP peptide analogues” (Antag Therapeutics ApS, priority 2018, dated 2025).
Like-named read-outs stand apart in the source and are kept apart here. *1 amine or outer side, *2 acyl side, *3 side chain or, on linkers, in order; H or OH if unused. Where a SMILES comes first, the peptide text is derived from it. Side-chain parts run from the residue outwards. [ ]: non-standard residue; d: D form. The star is where a group is joined. C18 diacid = O=C(O)CCCCCCCCCCCCCCCCC(=O)*; C16 diacid = O=C(O)CCCCCCCCCCCCCCC(=O)*; γGlu = O=C(O)[C@H](CCC(=O)[*:2])N[*:1]; pGlu = O=C1CC[C@@H](C(=O)O)N1; AEEA = NCCOCCOCC(=O)O

How the values were obtained:
human GIP receptor [1] = target: T1, human GIP receptor (Homo sapiens, UniProt P48546); experiment: cAMP accumulation, antagonism (DiscoveRx HitHunter cAMP XS assay); format: cell-based; parameters: host or cells: COS-7 (transient, calcium phosphate; pCMV-Script vector); conditions: for cAMP antagonism, % inhib / GIPR, Antagonism, % inhib: COS-7 cells; for cAMP antagonism, % inhib: % inhibition of Emax; for GIPR, Antagonism, % inhib: Table 3A/3B
T1 sequence (P48546 22-466): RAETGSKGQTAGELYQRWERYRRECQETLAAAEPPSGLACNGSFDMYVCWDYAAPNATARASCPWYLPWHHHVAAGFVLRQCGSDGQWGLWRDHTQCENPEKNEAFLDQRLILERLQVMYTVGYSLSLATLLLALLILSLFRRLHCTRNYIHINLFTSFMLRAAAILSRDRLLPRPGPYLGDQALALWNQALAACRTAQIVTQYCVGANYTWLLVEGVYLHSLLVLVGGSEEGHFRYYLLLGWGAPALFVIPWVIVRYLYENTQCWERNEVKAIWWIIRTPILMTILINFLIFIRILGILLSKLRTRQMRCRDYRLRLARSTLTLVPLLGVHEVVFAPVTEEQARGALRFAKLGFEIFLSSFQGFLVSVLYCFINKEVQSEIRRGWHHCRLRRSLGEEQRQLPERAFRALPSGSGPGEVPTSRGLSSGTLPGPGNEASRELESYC
How it was run: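 Transiently transfected COS-7 cells expressing human GIP receptor, pretreated with 1 mM IBMX in HBS 30 min at 37 °C. Agonism: ligand 30 min at 37 °C; antagonism: 10 min antagonist preincubation, then GIP at 50-80% maximal response for 20 min. cAMP measured by HitHunter cAMP XS.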

[2] = Elimination half-life (T1/2) estimated in Göttingen minipigs; format: in vivo
Procedure: 2-3 Göttingen minipigs were subcutaneously administered one of the GIP analogues of the present invention (1-10 nmol/kg, total volume 2-6 mL) and blood samples were collected before and up to 432 hours post subcutaneous administration.) from a central venous catheter. The catheter was flushed with saline and heparin between samples. Blood was collected into cold EDTA tubes, centrifuged and plasma was kept at −20° C. pending analyses.
Concentrations of the acylated GIP(3-30)NH2 or GIP(5-30)NH2 analogues in blood samples from Göttingen minipigs were analyzed by RIA. Analogues' immunoreactivity was determined using antiserum Ab95234, Ab95235, Ab95236, a polyclonal in-house antibody raised in rabbits specific for either the mid region of GIP(1-30)NH2 or amidated C-terminus of GIP(3-30)NH2.
In addition to the hormone analysis, blood concentrations of AT374, 380, 382-385, 392-393 were determined by LC/MS performed by Red Glead Discovery AB, Lund, Sweden. The plasma samples were precipitated by addition of 3 parts ethanol followed by thorough mixing. After centrifugation and dilution of the supernatant, the samples were analyzed by LC-MS/MS and compared with a 9-point calibration curve. The calibration curves were prepared in naïve plasma matrix from Göttingen minipigs.

GLP1 receptor (GLP1R) = target: T2, GLP1 receptor (GLP1R) (Homo sapiens, UniProt P43220); experiment: cAMP assay - selectivity, antagonism at GLP1 receptor; format: cell-based; conditions: Table 3A; COS-7 cells; agonist GLP1 at 50-80% of maximal cAMP
T2 construct: expressed in transfected cells; host or cells: COS-7 (transient)
T2 sequence (P43220 24-463, species assumed): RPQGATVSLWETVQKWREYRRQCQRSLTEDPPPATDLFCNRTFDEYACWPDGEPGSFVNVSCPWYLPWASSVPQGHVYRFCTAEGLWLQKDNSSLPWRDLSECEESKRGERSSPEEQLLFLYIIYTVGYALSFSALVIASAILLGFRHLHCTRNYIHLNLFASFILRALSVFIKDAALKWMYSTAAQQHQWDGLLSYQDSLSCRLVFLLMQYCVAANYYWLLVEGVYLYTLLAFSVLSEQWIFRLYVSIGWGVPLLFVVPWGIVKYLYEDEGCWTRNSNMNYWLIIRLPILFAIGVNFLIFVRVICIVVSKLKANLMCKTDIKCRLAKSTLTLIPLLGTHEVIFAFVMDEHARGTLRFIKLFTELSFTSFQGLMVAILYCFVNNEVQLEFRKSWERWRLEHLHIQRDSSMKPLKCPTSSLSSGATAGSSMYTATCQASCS
Procedure: (§1) Transient transfected COS-7 cells expressing the either of the GLP1 receptor (GLP1R), GLP2 receptor (GLP2R), glucagon receptor (GcgR) or secretin receptor (SCTR) were seeded in white 96-well plates with a density of 3.5*10^4/well. The day after, the cells were washed twice with Hepes buffered saline (HBS) buffer and incubated with HBS and 1 mM 3-isobutyl-1-methylxanthine (IBMX) for 30 min at 37° C. To test for agonistic properties, ligands were added and incubated for 30 min at 37° C. In order to test for antagonistic properties, the cells were preincubated with the antagonists for 10 min prior to the addition the natural agonist for the expressed receptor (GLP1 for GLP1R expressing cells, GLP2 for GLP2R expressing cells, glucagon for the GcgR and secretin for the SCTR) and subsequent incubated for 20 additional min. […] The HitHunter™ cAMP XS assay (DiscoveRx) was carried out according to the manufacturer's instructions.

GLP2 receptor (GLP2R) = target: T3, GLP2 receptor (GLP2R) (Homo sapiens, UniProt O95838); experiment: cAMP assay - selectivity, antagonism at GLP2 receptor; format: cell-based; conditions: Table 3B; COS-7 cells; agonist GLP2
T3 construct: expressed in transfected cells; host or cells: COS-7 (transient)
T3 sequence (O95838 1-553): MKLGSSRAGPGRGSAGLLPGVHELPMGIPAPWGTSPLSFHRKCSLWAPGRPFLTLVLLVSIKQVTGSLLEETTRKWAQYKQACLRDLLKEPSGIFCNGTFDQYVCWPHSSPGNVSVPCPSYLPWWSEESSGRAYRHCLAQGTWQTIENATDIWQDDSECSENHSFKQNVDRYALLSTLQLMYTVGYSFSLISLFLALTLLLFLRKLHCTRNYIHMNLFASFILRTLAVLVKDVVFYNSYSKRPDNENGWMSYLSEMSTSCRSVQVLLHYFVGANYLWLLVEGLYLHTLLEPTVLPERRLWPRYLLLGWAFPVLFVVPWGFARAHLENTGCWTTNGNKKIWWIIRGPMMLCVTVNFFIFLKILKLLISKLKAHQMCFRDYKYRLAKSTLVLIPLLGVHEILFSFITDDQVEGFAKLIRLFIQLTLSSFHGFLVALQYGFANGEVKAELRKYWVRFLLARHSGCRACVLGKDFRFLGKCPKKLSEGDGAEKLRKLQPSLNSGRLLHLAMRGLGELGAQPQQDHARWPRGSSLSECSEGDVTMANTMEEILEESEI
Procedure: as §1

glucagon receptor (GcgR) = target: T4, glucagon receptor (GcgR) (Homo sapiens, UniProt P47871); experiment: cAMP assay - selectivity, antagonism at glucagon receptor; format: cell-based; conditions: Table 3A; COS-7 cells; agonist glucagon at 50-80% of maximal cAMP
T4 construct: expressed in transfected cells; host or cells: COS-7 (transient)
T4 sequence (P47871 26-477, species assumed): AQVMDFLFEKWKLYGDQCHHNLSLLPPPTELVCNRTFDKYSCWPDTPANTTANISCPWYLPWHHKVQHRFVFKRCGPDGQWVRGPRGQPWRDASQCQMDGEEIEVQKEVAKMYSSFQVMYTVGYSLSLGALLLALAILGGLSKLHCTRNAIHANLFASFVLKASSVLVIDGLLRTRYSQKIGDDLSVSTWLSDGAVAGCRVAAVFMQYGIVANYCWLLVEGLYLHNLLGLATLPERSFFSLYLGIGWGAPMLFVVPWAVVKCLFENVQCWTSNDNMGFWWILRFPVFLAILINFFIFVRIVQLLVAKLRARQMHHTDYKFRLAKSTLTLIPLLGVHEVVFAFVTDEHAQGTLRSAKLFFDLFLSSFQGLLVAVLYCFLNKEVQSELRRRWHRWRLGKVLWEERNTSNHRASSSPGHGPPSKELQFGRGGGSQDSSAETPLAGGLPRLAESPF
Procedure: as §1

human GIP receptor [3] = target: T1, human GIP receptor; experiment: cAMP accumulation, agonism (DiscoveRx HitHunter cAMP XS assay); format: cell-based; parameters: host or cells: COS-7 (transient, calcium phosphate; pCMV-Script vector); conditions: Table 1B; DiscoveRx; COS-7 cells
How it was run: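 cAMP accumulation measured by HitHunter cAMP XS in COS-7 cells transiently expressing human GIP receptor, after 30 min in HBS with 1 mM IBMX at 37 °C. Antagonists preincubated 10 min before GIP giving 50-80% of maximum, then 20 min more; agonist mode used 30 min ligand exposure.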

[4] = cAMP antagonism, nM (IC50), Table 1B, DiscoveRx, transiently transfected COS-7 cells
[5] = Göttingen, minipig, plasma, subcutaneous, Example 1, read-out: T1/2 (converted)
[6] = sc, Table 1B, species not given, unit h, LC/MS in Göttingen minipig plasma for these IDs, subcutaneous 1-10 nmol/kg, read-out: T½ (converted)

SMILES	cAMP antagonism, % inhib (human GIP receptor [1]; Table 1B, DiscoveRx) [%]	GIPR, Antagonism, % inhib (human GIP receptor [1]; DiscoveRx) [%]	IC50 (human GIP receptor [1]; [4]) [nM]	half-life [2, 5] [h]	half-life [2, 6] [h]	GLP-1R, Antagonism, nM (GLP1 receptor (GLP1R))	GLP-2R, Antagonism (GLP2 receptor (GLP2R))	Glucagon R, Antagonism, nM (glucagon receptor (GcgR))	cAMP agonism, Emax (human GIP receptor [3])	IC50 (human GIP receptor [1]; IC50-value (GIPR antagonism), Examples 1 and 2, values of Tables 1B and 2) [nM]
CC[C@H](C)[C@H](NC(=O)[C@H](CO)NC(=O)[C@H](Cc1ccc(O)cc1)NC(=O)[C@H](CC(=O)O)NC(=O)[C@H](CO)NC(=O)[C@@H](NC(=O)[C@H](Cc1ccccc1)NC(=O)[C@@H](NC(=O)CNC(=O)[C@@H]1CCC(=O)N1)[C@@H](C)O)[C@@H](C)CC)C(=O)N[C@@H](C)C(=O)N[C@@H](CCSC)C(=O)N[C@@H](CC(=O)O)C(=O)N[C@@H](CCCNC(=N)N)C(=O)N[C@H](C(=O)N[C@@H](CCCCNC(=O)COCCOCCNC(=O)COCCOCCNC(=O)COCCOCCNC(=O)CC[C@H](NC(=O)CCCCCCCCCCCCCCCCC(=O)O)C(=O)O)C(=O)N[C@@H](CCC(N)=O)C(=O)N[C@@H](CCC(N)=O)C(=O)N[C@@H](CC(=O)O)C(=O)N[C@@H](Cc1ccccc1)C(=O)N[C@H](C(=O)N[C@@H](CC(N)=O)C(=O)N[C@@H](Cc1c[nH]c2ccccc12)C(=O)N[C@@H](CC(C)C)C(=O)N[C@@H](CC(C)C)C(=O)N[C@@H](C)C(=O)N[C@@H](CCC(N)=O)C(=O)N[C@@H](CCCNC(=N)N)C(N)=O)C(C)C)[C@@H](C)CC [AT382] ([pGlu]GTFISDYSIAMDRIK([AEEA-AEEA-AEEA-γGlu-C18 diacid])QQDFVNWLLAQR-NH2)	100	100.0	2	29	29	No antagonism	No antagonism	No antagonism	No Agonism	–
CC[C@H](C)[C@H](NC(=O)[C@H](CO)NC(=O)[C@H](Cc1ccc(O)cc1)NC(=O)[C@H](CC(=O)O)NC(=O)[C@H](CO)NC(=O)[C@@H](NC(=O)[C@H](Cc1ccccc1)NC(=O)[C@@H](NC(=O)CNC(=O)[C@@H](N)CO)[C@@H](C)O)[C@@H](C)CC)C(=O)N[C@@H](C)C(=O)N[C@@H](CCSC)C(=O)N[C@@H](CC(=O)O)C(=O)N[C@@H](CCCNC(=N)N)C(=O)N[C@H](C(=O)N[C@@H](CCCCNC(=O)COCCOCCNC(=O)COCCOCCNC(=O)COCCOCCNC(=O)CC[C@H](NC(=O)CCCCCCCCCCCCCCC(=O)O)C(=O)O)C(=O)N[C@@H](CCC(N)=O)C(=O)N[C@@H](CCC(N)=O)C(=O)N[C@@H](CC(=O)O)C(=O)N[C@@H](Cc1ccccc1)C(=O)N[C@H](C(=O)N[C@@H](CC(N)=O)C(=O)N[C@@H](Cc1c[nH]c2ccccc12)C(=O)N[C@@H](CC(C)C)C(=O)N[C@@H](CC(C)C)C(=O)N[C@@H](C)C(=O)N[C@@H](CCC(N)=O)C(=O)N[C@@H](CCCNC(=N)N)C(N)=O)C(C)C)[C@@H](C)CC [AT383] (H-SGTFISDYSIAMDRIK([AEEA-AEEA-AEEA-γGlu-C16 diacid])QQDFVNWLLAQR-NH2; N-terminus assumed)	100	100.0	1	–	12	No antagonism	No antagonism	No antagonism	No Agonism	–
CC[C@H](C)[C@H](NC(=O)[C@H](CO)NC(=O)[C@H](Cc1ccc(O)cc1)NC(=O)[C@H](CC(=O)O)NC(=O)[C@H](CO)NC(=O)[C@@H](NC(=O)[C@H](Cc1ccccc1)NC(=O)[C@@H](NC(=O)CNC(=O)[C@@H](N)CO)[C@@H](C)O)[C@@H](C)CC)C(=O)N[C@@H](C)C(=O)N[C@@H](CCSC)C(=O)N[C@@H](CC(=O)O)C(=O)N[C@@H](CCCNC(=N)N)C(=O)N[C@H](C(=O)N[C@@H](CCCCNC(=O)COCCOCCNC(=O)COCCOCCNC(=O)CC[C@H](NC(=O)CCCCCCCCCCCCCCCCC(=O)O)C(=O)O)C(=O)N[C@@H](CCC(N)=O)C(=O)N[C@@H](CCC(N)=O)C(=O)N[C@@H](CC(=O)O)C(=O)N[C@@H](Cc1ccccc1)C(=O)N[C@H](C(=O)N[C@@H](CC(N)=O)C(=O)N[C@@H](Cc1c[nH]c2ccccc12)C(=O)N[C@@H](CC(C)C)C(=O)N[C@@H](CC(C)C)C(=O)N[C@@H](C)C(=O)N[C@@H](CCC(N)=O)C(=O)N[C@@H](CCCNC(=N)N)C(N)=O)C(C)C)[C@@H](C)CC [AT384] (H-SGTFISDYSIAMDRIK([AEEA-AEEA-γGlu-C18 diacid])QQDFVNWLLAQR-NH2; N-terminus assumed)	100	100.0	8	36	36	No antagonism	No antagonism	No antagonism	No Agonism	8
